Laboratory results taken from PubChem BioAssay AID488967 (The Scripps Research Institute Molecular Screening Center, 2010).
Active and inactive are the calls of the source. No rule for the calls is given here.

Tested on: SARS coronavirus 3C-like protease (3CLpro, nsp5)
Assay: blockers of SARS 3CLpro activity – biochemical, fluorescence, assay provider results, late-stage follow-up (AID 488967)
Details: recombinant 3CLpro, fluorogenic peptide cleavage; at 100 µM; hits give high values

| Compound | inhibition |
| --- | --- |
| O=C(Nc1ccc(N(Cc2ccsc2)C(=O)Cn2nnc3ccccc32)cc1)c1ccccc1 | 18.2% (inactive) |
| CC(C)(C)NC(=O)C(c1ccsc1)N(C(=O)Cn1nnc2ccccc21)c1ccc(NC(=O)c2ccccc2)cc1 (configuration not stated) | -7% (inactive) |
| CC(C)COC(=O)Nc1ccc(N(Cc2ccsc2)C(=O)Cn2nnc3ccccc32)cc1 | 10.3% (inactive) |
| O=C(Nc1ccc(N(Cc2ccsc2)C(=O)Cn2nnc3ccccc32)cc1)C1CCC1 | 85.7% |
| CC(=O)Nc1ccc(N(C(=O)Cn2nnc3ccccc32)C(C(=O)NC(C)(C)C)c2cccc(F)c2)cc1 (configuration not stated) | 90.2% |
| CC(C)(C)NC(=O)C(c1cccc(F)c1)N(C(=O)Cn1nnc2ccccc21)C12CC3CC(CC(C3)C1)C2 (configuration not stated) | 10.6% (inactive) |
| CC(C)(C)C(=O)Nc1ccc(N(Cc2ccsc2)C(=O)Cn2nnc3ccccc32)cc1 | 86.3% |
| CC(=O)Nc1ccc(N(C(=O)Cn2nnc3ccccc32)C(C(=O)NCc2ccccc2)c2cccc(F)c2)cc1 (configuration not stated) | 84.7% |
| CC(C)(C)NC(=O)C(c1cccnc1)N(C(=O)Cc1cnc[nH]1)c1ccc(C(C)(C)C)cc1 (configuration not stated) | 15.7% (inactive) |
| O=C(Nc1ccc(N(Cc2ccsc2)C(=O)Cn2nnc3ccccc32)cc1)C1CC1 | 82.8% |
| O=C(Nc1ccc(N(Cc2ccsc2)C(=O)Cn2nnc3ccccc32)cc1)C1CCCCC1 | 22.1% (inactive) |
| CC(C)(C)NC(=O)C(c1cccnc1)N(C(=O)c1ncco1)c1ccc(C(C)(C)C)cc1 (configuration not stated) | 51.6% |
| CC(C)(C)NC(=O)C(c1cccc(F)c1)N(C(=O)Cn1nnc2ccccc21)C1CC2CCC1C2 (configuration not stated) | 32.7% (inactive) |
| CC(C)(C)NC(=O)C(c1ccsc1)N(C(=O)Cn1nnc2ccccc21)c1ccc(NC(=O)C2CCCCC2)cc1 (configuration not stated) | 84.9% |
| CC(C)(C)NC(=O)C(c1ccsc1)N(C(=O)Cn1nnc2ccccc21)c1ccc(NC(=O)C(C)(C)C)cc1 (configuration not stated) | 77.4% |
| CC(C)(C)NC(=O)[C@@H](c1cccnc1)N(C(=O)c1ccco1)c1ccc(C(C)(C)C)cc1 | 98.8% |

| Compound | inhibition |
| --- | --- |
| O=C(NCc1ccccc1)C(c1cccc(F)c1)N(C(=O)Cn1nnc2ccccc21)C12CC3CC(CC(C3)C1)C2 (configuration not stated) | 11.1% (inactive) |
| CC(C)(C)NC(=O)C(c1ccsc1)N(C(=O)Cn1nnc2ccccc21)c1ccc(NC(=O)C2CC2)cc1 (configuration not stated) | 85.7% |
| CC(C)(C)NC(=O)C(c1ccsc1)N(C(=O)Cn1nnc2ccccc21)c1ccc(NC(=O)c2ccno2)cc1 (configuration not stated) | 59.4% |
| CC(C)C(=O)Nc1ccc(N(Cc2ccsc2)C(=O)Cn2nnc3ccccc32)cc1 | 83.6% |
| CC(C)(C)NC(=O)C(c1ccsc1)N(C(=O)Cn1nnc2ccccc21)c1ccc(NC(=O)c2cccs2)cc1 (configuration not stated) | 14.6% (inactive) |
| CC(C)(C)NC(=O)C(c1cncnc1)N(C(=O)c1cnc[nH]1)c1ccc(C(C)(C)C)cc1 (configuration not stated) | 66.8% |
| CCC(C)c1ccc(N(C(=O)c2ccco2)[C@H](C(=O)NC(C)(C)C)c2cccnc2)cc1 (some centres not stated) | 93.1% |
| CC(C)(C)NC(=O)C(c1ccsc1)N(C(=O)Cn1nnc2ccccc21)c1ccc(NC(=O)C2CCC2)cc1 (configuration not stated) | 22.7% (inactive) |
| O=C(NCc1ccccc1)C(c1cccc(F)c1)N(C(=O)Cn1nnc2ccccc21)C1CC2CCC1C2 (configuration not stated) | 42.5% (inactive) |
| CC(C)(C)NC(=O)C(c1cncnc1)N(C(=O)c1cnco1)c1ccc(C(C)(C)C)cc1 (configuration not stated) | 36.2% (inactive) |
| CCC(C)c1ccc(N(C(=O)c2ccco2)[C@@H](C(=O)NC(C)(C)C)c2cccnc2)cc1 (some centres not stated) | -3.8% (inactive) |
| CC(C)COC(=O)Nc1ccc(N(C(=O)Cn2nnc3ccccc32)C(C(=O)NC(C)(C)C)c2ccsc2)cc1 (configuration not stated) | 0.9% (inactive) |
| CC(C)(C)NC(=O)C(c1cccnc1)N(C(=O)c1ccc(Cl)o1)c1ccc(C(C)(C)C)cc1 (configuration not stated) | 89.6% |
| CC(C)(C)NC(=O)C(c1cccnc1)N(C(=O)c1ccc[nH]1)c1ccc(C(C)(C)C)cc1 (configuration not stated) | 18.6% (inactive) |
| O=C(Nc1ccc(N(Cc2ccsc2)C(=O)Cn2nnc3ccccc32)cc1)c1cccs1 | 32.9% (inactive) |
| CC(C)(C)NC(=O)[C@H](c1cccnc1)N(C(=O)c1ccco1)c1ccc(C(C)(C)C)cc1 | 25% (inactive) |
